How the values were obtained:
[1] = Comparative salt stability of pharmaceutical formulations after 1 week; format: physicochemical; conditions: formulation as in Example 3
Procedure: Samples were made with 1% Citric Acid or Na2CO3 by first coating a mortar with mannitol. Omarigliptin was then triturated using the mortar and pestle with 0.1000 g mannitol then with 0.1000 g mannitol & 0.1000 g citric acid or Na2CO3 and then with equal amounts mannitol. The triturate was added to the remaining ingredients and blended initially with mortar and pestle and then transferred into a glass bottle and blended with a blender at medium speed for 15 mins. Magnesium stearate was passed through a 250 micron screen and the required quantity was dispensed and added to the powders in the bottle. The mixture was blended for 1 minute at medium speed. Tablets were compressed using a press having ¼″ normal concave punches at 100 mg unit weight:
Fumarate, phosphate and hydrochloride salts of omarigliptin were made and used in the manufacture of pharmaceutical formulations as described in Example 3. The pharmaceutical formulations containing the fumerate, phosphate and hydrochloride salts of omarigliptin as well as pharmaceutical formulations containing the free base were tested under various conditions for stability.

[2] = Formulation work on chemical stability of omarigliptin; format: physicochemical
Source text: One concern with developing an oral pharmaceutical formulation of omarigliptin is the chemical stability of the compound. […] Also omarigliptin stability is critically sensitive to drug loading with lower drug loadings becoming increasingly unstable in any formulation drug product. […] This degradation process with respect to free amines is described in Robertson et al., Maillard's Reaction and its Impliations for Amine Drugs in the Pharmaceutical Industry, Digital Edition of American Pharmaceutical Review, Volume 15, Issue 3, April 2012.

Row | Compound | % Area ([1]; 5° C./50% RH closed) [%] | % LC ([1]; 5° C./50% RH closed) [%] | % Area ([1]; 50° C./75% RH/open) [%] | % LC ([1]; 50° C./75% RH/open) [%] | Total Degs. (Area %) ([1]; 50° C./75% RH/open) | % Area ([1]; 50° C./closed) [%] | % LC ([1]; 50° C./closed) [%] | Total Degs. (Area %) ([1]; 50° C./closed) | sensitivity to oxidation [2] | sensitivity to acid and base catalyzed hydrolysis ([2]; early formulation work) | sensitivity to Maillard degradation (browning) ([2]; with excipients or other impurities that contain reducible sugar impurities)
1 | CS(=O)(=O)n1cc2c(n1)CN([C@H]1CO[C@H](c3cc(F)ccc3F)[C@@H](N)C1)C2 [Free Base I, (2R,3S,5R)-2-(2,5-Difluorophenyl)-5-[2-(methylsulfonyl)-2,6-dihydropyrrolo[3,4-c]pyrazol-5(4H)-yl]tetrahydro-2H-pyran-3-amine] | 98.8 | 88.5 | 97.1 | 82.0 | 1.7 | 97.9 | 85.9 | 0.9 |  |  | 
2 | Phosphate | 96.8 | 76.5 | 92.0 | 54.4 | 4.8 | 94.0 | 70.8 | 2.9 |  |  | 
3 | CS(=O)(=O)n1cc2c(n1)CN([C@H]1CO[C@H](c3cc(F)ccc3F)[C@@H](N)C1)C2.O=C(O)/C=C/C(=O)O [Fumerate] | 95.9 | 79.6 | 93.8 | 69.5 | 2.0 | 94.3 | 75.9 | 1.6 |  |  | 
4 | CS(=O)(=O)n1cc2c(n1)CN(C1COC(c3cc(F)ccc3F)C(N)C1)C2.Cl (centres unmarked) [HCl] | 98.69 | 75.5 | 95.3 | 62.5 | 3.6 | 97.6 | 71.8 | 1.3 |  |  | 
5 | CS(=O)(=O)n1cc2c(n1)CN([C@H]1CO[C@H](c3cc(F)ccc3F)[C@@H](N)C1)C2 [omarigliptin, (2R,3S,5R)-2-(2,5-Difluorophenyl)-5-[2-(methylsulfonyl)-2,6-dihydropyrrolo[3,4-c]pyrazol-5(4H)-yl]tetrahydro-2H-pyran-3-amine] |  |  |  |  |  |  |  |  | sensitive to oxidation | sensitive to acid and base catalyzed hydrolysis | sensitive to Maillard degradation
